From ChEMBL document CHEMBL1201862, “PubChem BioAssay data set” (2004)
The source made the active and inactive calls.

What was measured:
[1] = target: T1, Voltage-gated N-type calcium channel alpha-1B subunit/Amyloid beta A4 precursor protein-binding family A member 1 (Homo sapiens, UniProt Q00975+Q02410); type: protein assay
[2] = target: T1, Voltage-gated N-type calcium channel alpha-1B subunit/Amyloid beta A4 precursor protein-binding family A member 1; type: protein assay; remark: listed apart in the source
[3] = target: G-protein coupled receptor 55 (Homo sapiens, UniProt Q9Y2T6); assay: GPR55 antagonists blocking LPI-driven arrestin recruitment, primary screen, imaging, U2OS, beta-arrestin-GFP, LPI agonist (AID 2013); type: functional;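 also: antagonist potency measured as reduced agonist-driven arrestin aggregation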
Sequence of G-protein coupled receptor 55 (Q9Y2T6 whole entry): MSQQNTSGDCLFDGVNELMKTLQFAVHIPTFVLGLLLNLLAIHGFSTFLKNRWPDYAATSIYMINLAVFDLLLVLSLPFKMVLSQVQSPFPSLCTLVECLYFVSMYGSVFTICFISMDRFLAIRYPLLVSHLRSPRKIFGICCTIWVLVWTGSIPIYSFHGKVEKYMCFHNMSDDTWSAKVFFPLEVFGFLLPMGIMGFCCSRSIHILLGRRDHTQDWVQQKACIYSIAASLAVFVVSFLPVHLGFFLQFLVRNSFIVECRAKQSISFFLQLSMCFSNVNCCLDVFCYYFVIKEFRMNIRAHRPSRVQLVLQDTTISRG

Cytochrome P450 3A4 = Cytochrome P450 3A4 (Homo sapiens, UniProt P08684);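 also: CYP3A4 tested as one member of a cytochrome P450 panel screen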
Cytochrome P450 1A2 = target: T2, Cytochrome P450 1A2 (Homo sapiens, UniProt P05177);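 also: PubChem cytochrome P450 panel assay, CYP1A2 panel member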
T2 sequence (P05177 whole entry): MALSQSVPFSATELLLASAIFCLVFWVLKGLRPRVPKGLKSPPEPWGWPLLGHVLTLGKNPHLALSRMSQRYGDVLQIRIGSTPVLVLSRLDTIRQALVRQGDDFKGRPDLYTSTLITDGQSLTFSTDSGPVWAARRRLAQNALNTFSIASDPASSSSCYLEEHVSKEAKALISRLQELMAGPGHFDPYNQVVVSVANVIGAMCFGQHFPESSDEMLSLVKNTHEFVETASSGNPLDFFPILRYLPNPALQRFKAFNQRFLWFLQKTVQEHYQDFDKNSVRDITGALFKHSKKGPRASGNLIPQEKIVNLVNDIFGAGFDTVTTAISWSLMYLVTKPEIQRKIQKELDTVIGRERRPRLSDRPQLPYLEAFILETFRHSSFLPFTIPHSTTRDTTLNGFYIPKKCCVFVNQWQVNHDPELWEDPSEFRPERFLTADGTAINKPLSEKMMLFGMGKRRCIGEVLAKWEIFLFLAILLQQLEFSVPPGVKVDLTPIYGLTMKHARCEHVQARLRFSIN

Cytochrome P450 2D6 = Cytochrome P450 2D6 (Homo sapiens, UniProt P10635);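 also: CYP2D6 member of a cytochrome P450 panel assay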
Sequence of Cytochrome P450 2D6 (P10635 whole entry): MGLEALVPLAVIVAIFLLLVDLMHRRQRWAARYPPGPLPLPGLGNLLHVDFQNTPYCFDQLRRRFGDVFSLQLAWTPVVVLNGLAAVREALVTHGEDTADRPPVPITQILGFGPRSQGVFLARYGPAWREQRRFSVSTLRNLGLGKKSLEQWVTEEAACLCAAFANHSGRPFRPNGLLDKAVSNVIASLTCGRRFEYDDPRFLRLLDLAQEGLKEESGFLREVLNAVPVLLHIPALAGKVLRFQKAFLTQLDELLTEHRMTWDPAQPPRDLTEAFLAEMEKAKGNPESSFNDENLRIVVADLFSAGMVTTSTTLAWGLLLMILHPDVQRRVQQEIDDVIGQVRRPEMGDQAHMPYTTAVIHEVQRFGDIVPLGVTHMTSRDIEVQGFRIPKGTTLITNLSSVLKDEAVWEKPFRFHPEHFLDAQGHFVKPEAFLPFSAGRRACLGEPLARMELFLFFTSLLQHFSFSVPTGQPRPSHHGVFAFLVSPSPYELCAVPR

Cytochrome P450 2C9 = Cytochrome P450 2C9 (Homo sapiens, UniProt P11712)
Sequence of Cytochrome P450 2C9 (P11712 whole entry): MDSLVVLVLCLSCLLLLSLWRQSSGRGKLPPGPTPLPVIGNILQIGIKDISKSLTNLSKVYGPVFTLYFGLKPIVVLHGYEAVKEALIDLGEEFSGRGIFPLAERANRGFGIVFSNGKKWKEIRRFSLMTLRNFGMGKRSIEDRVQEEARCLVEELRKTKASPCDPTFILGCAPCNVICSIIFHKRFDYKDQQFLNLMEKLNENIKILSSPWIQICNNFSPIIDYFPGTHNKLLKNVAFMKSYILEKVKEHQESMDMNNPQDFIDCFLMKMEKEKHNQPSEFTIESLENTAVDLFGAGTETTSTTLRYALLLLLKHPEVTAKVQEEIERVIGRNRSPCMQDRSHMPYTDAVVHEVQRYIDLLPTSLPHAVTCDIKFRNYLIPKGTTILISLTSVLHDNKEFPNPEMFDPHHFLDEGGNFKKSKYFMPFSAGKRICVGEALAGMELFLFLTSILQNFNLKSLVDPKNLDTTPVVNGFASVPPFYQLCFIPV

HEK293 = assay: cells; conditions: Homo sapiens;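 also: cells exposed to compound for 14 hours overnight before viability readout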
[4] = HepG2 cell cytotoxicity, dose response, cytotoxicity control for non-replicating M. tuberculosis project (AID 489018); type: functional; conditions: Mycobacterium tuberculosis
Streptococcus = assay: Group A Streptococcus viability loss, dose response, counter-screen for streptokinase expression inhibitor project, luminescence, BacTiterGlo (AID 1915); type: functional, organism-based;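 also: potency for reduction of bacterial viability or growth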
cells = type: functional
[5] = Shn3 3'UTR reporter inhibitors, dose response, cell-based, Clone20 osteoblasts, firefly luciferase, cherry-picked (AID 624132); type: functional;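 also: firefly luciferase luminescence from reporter carrying the Shn3 3'UTR in osteoblasts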
[6] = Vero E6 cell cytotoxicity, dose response, cytotoxicity control for non-replicating M. tuberculosis project, secondary assay (AID 492998); type: functional, VeroE6; conditions: Vero C1008
[7] = THP-1 cell cytotoxicity, dose response, cytotoxicity control for non-replicating M. tuberculosis project (AID 489025); type: functional
[8] = target: T3, Microphthalmia-associated transcription factor (Homo sapiens, UniProt O75030); assay: TRPM1 promoter luciferase signal decrease, dose response, MITF inhibitor project, cell-based, SK-MEL-5, cherry-picked, set 3 (AID 493073); type: functional
T3 sequence (O75030 whole entry): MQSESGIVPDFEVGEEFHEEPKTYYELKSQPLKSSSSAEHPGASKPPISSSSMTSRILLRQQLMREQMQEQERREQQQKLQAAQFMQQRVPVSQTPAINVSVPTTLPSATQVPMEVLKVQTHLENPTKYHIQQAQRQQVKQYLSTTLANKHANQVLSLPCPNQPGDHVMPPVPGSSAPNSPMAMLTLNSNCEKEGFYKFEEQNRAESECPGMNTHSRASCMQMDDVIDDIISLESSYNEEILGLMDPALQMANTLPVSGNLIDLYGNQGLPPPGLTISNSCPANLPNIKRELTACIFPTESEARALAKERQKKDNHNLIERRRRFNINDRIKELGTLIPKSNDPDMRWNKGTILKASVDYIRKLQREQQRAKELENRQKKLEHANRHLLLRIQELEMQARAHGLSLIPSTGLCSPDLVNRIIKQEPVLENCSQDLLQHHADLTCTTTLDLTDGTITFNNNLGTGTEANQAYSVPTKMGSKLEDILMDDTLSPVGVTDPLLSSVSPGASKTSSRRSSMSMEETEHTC

[9] = target: T4, Nucleotide-binding oligomerization domain-containing protein 1 (Homo sapiens, UniProt Q9Y239); assay: NOD1 signaling inhibitors, SAR follow-up, revised (AID 2333); type: functional
T4 sequence (Q9Y239 whole entry): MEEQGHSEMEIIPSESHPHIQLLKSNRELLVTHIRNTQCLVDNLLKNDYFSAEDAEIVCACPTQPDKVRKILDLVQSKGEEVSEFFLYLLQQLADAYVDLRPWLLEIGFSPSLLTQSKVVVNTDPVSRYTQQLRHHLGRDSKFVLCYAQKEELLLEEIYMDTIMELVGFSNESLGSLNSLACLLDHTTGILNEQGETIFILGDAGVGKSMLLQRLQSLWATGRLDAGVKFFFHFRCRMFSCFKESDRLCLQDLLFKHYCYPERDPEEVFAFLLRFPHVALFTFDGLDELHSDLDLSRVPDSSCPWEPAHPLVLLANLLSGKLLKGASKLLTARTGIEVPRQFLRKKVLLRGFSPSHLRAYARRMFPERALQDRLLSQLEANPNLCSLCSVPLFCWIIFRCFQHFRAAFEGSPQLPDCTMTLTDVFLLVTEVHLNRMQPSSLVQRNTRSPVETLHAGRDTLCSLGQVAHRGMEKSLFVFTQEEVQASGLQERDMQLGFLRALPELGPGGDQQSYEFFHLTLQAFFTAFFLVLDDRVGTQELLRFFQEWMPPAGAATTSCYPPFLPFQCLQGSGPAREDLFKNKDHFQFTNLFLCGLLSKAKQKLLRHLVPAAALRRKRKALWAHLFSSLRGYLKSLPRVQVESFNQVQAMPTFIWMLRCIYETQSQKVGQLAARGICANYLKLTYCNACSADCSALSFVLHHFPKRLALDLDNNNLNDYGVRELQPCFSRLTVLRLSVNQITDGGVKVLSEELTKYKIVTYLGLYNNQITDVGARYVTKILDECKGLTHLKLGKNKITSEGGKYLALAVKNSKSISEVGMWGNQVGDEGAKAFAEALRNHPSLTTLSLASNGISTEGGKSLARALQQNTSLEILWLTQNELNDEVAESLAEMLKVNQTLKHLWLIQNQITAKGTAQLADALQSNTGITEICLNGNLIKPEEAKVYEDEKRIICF

[10] = A Cell Based Secondary Assay To Explore Cytotoxicity of Compounds that Sensitize Mycobacterium Tuberculosis to Beta-Lactam Antibiotics.; type: functional
[11] = test system: Streptococcus sp. 'group A'; assay: growth inhibition of control SK(-) GAS strain, dose response, counter-screen for streptokinase expression inhibitor project, luminescence, kanamycin, BacTiterGlo, confirmation (AID 1900); type: functional, organism-based
Tumor necrosis factor = Tumor necrosis factor (Homo sapiens, UniProt P01375); assay: TNFa-triggered NF-kB activation inhibitors, SAR follow-up, cell-based, revised (AID 2337); type: functional
[12] = HepG2 cell cytotoxicity, dose response, cytotoxicity control for Shn3 inhibitor project, CellTiter-Glo, cherry-picked (AID 624134); type: functional, cell-based
[13] = control 3'UTR Renilla luciferase suppression, dose response, counter-screen for Shn3 inhibitor project, cell-based, Clone20-Shn3RL, cherry-picked (AID 624133); type: functional
SUMO-activating enzyme = SUMO-activating enzyme (Homo sapiens, UniProt Q9UBT2); assay: SUMOylation inhibitor hit validation, confirmation, SUMOylation inhibitor project, biochemical, AlphaScreen (AID 2018); type: functional
[14] = growth suppression of PTEN-null colon cells, dose response, cell-based, HCT116 PTEN knockout (AID 1047); type: functional;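 also: HCT116 colon tumor cells with PTEN knocked out; cells exposed to compound for 60 hours before readout; potency for loss of cell viability measured by luminescence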
[15] = growth suppression of beta-catenin-knockout colon cells, dose response, cell-based, HCT116, human colon tumor (AID 1045); type: functional;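 also: HCT116 colon tumor cells with beta catenin knocked out; cells exposed to compound for 60 hours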
[16] = target: T5, Calpain-2 catalytic subunit (Sus scrofa, UniProt P43367); assay: pig calpain II inhibitor potency, dose response, biochemical, fluorogenic peptide substrate (AID 1420); type: functional
T5 sequence (P43367 whole entry): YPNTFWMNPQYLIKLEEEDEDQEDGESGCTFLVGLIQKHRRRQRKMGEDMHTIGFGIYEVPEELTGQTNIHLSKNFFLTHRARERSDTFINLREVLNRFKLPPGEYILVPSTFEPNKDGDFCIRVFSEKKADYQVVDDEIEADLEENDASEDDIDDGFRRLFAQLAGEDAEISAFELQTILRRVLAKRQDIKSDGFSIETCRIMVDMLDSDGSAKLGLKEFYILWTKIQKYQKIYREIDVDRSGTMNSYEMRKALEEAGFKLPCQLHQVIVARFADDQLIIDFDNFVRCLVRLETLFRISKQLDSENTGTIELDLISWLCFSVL

[17] = target: T1, Voltage-gated N-type calcium channel alpha-1B subunit/Amyloid beta A4 precursor protein-binding family A member 1; assay: disruptors of Mint-PDZ/N-type channel peptide interaction – biochemical, HTRF, SAR follow-up (AID 2489); type: functional
SUMO E1/E2 = SUMO E1/E2 (Homo sapiens, UniProt P63279+Q9UBE0+Q9UBT2); assay: SAR analysis of SUMOylation using HTRF in an in-Vitro dose response assay. [Related pubchem assays (depositor defined):AID2006, AID2011, AID2018, AID2069, AID2658]; type: functional
[18] = target: Eukaryotic translation initiation factor 4E (Mus musculus, UniProt P63073); assay: eIF4E–eIF4G protein interaction inhibitors, dose response, biochemical, TR-FRET (AID 855); type: functional;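 also: potency for disrupting eIF4E binding to eIF4GI seen as loss of FRET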
Sequence of Eukaryotic translation initiation factor 4E (P63073 whole entry): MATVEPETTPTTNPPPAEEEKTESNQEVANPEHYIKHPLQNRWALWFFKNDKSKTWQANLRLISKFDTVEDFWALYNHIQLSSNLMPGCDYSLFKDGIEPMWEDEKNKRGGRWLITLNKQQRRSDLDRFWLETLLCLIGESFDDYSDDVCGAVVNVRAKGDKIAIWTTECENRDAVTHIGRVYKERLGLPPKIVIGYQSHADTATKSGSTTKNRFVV

[19] = target: T1, Voltage-gated N-type calcium channel alpha-1B subunit/Amyloid beta A4 precursor protein-binding family A member 1; assay: disruptors of Mint-PDZ/N-type channel peptide interaction – biochemical, HTRF, set 2, SAR follow-up (AID 434980); type: functional
[20] = target: Induced myeloid leukemia cell differentiation protein Mcl-1 (Homo sapiens, UniProt Q07820); type: functional
Kallikrein-7 = Kallikrein-7 (Homo sapiens, UniProt P49862); assay: Fluorescence Intensity-based biochemical primary high throughput dose response assay to identify activators of kallikrein-7 (K7) zymogen.
Sequence of Kallikrein-7 (P49862 whole entry, the tested form may be a part): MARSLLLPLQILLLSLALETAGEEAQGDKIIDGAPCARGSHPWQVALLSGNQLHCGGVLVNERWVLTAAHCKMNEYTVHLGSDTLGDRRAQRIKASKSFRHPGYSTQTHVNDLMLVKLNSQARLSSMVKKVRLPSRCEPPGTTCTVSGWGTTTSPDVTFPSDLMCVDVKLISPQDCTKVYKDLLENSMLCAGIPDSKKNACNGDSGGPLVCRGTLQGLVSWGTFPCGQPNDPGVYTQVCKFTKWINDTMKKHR

[21] = target: T6, Type-1 angiotensin II receptor (Homo sapiens, UniProt P30556); assay: AT1 receptor agonists, dose response, selectivity assay for APJ receptor agonist project, cell-based, uHTS hits (AID 488865); type: functional;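 also: beta-arrestin recruitment to AT1 measured by enzyme fragment complementation luminescence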
T6 sequence (P30556 whole entry): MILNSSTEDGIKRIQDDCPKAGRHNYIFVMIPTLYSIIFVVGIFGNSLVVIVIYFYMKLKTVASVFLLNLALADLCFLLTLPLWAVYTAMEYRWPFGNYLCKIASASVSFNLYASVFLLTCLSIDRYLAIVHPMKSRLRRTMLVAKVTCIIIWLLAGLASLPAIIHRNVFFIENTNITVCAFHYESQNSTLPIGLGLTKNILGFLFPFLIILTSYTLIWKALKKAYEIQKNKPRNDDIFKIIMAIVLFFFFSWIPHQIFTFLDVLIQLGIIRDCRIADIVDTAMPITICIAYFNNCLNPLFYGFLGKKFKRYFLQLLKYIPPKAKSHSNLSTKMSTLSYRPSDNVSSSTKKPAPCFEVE

[22] = target: T7, Ubiquitin-conjugating enzyme E2 N (Homo sapiens, UniProt P61088); type: functional
T7 sequence (P61088 whole entry): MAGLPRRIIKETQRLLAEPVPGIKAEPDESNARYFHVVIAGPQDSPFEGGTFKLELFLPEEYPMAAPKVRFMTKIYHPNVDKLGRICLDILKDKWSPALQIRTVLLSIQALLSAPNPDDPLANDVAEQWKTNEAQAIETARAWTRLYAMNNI

Bcl-2-related protein A1 = target: T8, Bcl-2-related protein A1 (Mus musculus, UniProt Q07440); type: functional;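 also: confirmatory dose–response counterscreen on Bfl-1, used to check hits from a UBC13 polyubiquitin inhibitor campaign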
T8 sequence (Q07440 whole entry): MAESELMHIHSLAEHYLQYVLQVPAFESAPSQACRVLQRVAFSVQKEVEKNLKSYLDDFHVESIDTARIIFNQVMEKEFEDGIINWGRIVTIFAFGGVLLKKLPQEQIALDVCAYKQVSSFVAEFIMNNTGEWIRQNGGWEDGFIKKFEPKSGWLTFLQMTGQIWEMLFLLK

[23] = target: T7, Ubiquitin-conjugating enzyme E2 N; type: functional; remark: listed apart in the source

T1 sequence (Q00975 whole entry): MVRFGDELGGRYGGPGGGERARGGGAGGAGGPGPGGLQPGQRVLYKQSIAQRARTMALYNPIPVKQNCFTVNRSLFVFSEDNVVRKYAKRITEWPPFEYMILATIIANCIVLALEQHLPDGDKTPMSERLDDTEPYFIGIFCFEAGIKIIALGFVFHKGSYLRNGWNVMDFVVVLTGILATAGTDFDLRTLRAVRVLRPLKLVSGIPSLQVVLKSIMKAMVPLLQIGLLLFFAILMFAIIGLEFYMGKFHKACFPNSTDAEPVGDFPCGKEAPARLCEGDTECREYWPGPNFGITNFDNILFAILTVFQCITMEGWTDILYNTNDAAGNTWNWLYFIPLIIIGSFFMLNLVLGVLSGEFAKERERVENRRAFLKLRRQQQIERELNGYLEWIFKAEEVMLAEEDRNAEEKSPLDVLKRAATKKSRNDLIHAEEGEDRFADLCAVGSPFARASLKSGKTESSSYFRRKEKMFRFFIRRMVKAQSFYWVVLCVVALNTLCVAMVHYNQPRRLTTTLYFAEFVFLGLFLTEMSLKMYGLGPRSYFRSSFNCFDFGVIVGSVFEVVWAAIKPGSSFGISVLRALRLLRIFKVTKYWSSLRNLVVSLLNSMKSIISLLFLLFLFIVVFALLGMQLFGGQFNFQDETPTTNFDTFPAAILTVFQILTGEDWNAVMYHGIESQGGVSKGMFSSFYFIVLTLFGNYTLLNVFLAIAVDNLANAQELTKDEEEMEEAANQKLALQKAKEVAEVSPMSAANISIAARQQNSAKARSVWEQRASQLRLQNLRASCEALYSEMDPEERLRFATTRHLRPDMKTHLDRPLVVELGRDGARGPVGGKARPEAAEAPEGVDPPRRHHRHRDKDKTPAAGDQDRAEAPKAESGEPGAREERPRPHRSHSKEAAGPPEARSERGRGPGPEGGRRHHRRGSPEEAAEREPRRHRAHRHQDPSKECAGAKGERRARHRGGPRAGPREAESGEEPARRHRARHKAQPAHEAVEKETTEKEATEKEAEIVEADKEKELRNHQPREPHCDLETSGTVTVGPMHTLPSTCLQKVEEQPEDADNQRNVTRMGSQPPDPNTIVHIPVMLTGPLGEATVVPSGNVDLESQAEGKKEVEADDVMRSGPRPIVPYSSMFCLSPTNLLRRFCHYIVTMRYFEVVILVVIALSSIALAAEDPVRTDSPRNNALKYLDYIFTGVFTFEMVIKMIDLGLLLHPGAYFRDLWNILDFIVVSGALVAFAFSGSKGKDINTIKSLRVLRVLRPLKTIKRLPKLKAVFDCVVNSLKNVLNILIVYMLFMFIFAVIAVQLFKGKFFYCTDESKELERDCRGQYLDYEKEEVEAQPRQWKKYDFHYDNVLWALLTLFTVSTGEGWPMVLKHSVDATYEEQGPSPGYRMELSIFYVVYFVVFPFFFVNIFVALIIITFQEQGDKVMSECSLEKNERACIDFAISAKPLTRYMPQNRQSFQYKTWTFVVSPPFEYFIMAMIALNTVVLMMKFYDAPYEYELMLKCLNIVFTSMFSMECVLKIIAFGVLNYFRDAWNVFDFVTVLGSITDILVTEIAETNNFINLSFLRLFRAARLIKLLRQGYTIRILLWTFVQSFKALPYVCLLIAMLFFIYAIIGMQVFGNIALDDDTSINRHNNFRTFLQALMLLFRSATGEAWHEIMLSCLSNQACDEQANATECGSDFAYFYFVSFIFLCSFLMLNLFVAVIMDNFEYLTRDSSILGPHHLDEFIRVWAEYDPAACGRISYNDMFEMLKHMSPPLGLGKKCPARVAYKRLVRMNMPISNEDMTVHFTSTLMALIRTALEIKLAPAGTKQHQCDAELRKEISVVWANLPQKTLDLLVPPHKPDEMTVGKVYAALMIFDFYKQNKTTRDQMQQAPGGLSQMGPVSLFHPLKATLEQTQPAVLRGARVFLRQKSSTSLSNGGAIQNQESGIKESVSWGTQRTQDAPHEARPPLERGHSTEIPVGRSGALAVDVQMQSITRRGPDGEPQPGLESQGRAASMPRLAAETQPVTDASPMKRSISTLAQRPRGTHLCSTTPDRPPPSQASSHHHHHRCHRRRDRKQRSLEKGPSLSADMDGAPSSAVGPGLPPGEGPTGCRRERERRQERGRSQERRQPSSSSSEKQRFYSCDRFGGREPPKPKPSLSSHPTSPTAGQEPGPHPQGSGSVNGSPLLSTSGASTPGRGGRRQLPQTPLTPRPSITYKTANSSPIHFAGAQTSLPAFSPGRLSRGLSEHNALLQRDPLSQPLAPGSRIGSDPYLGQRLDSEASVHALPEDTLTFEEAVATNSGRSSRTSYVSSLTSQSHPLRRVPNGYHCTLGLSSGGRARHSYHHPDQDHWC
T1 sequence (Q02410 whole entry): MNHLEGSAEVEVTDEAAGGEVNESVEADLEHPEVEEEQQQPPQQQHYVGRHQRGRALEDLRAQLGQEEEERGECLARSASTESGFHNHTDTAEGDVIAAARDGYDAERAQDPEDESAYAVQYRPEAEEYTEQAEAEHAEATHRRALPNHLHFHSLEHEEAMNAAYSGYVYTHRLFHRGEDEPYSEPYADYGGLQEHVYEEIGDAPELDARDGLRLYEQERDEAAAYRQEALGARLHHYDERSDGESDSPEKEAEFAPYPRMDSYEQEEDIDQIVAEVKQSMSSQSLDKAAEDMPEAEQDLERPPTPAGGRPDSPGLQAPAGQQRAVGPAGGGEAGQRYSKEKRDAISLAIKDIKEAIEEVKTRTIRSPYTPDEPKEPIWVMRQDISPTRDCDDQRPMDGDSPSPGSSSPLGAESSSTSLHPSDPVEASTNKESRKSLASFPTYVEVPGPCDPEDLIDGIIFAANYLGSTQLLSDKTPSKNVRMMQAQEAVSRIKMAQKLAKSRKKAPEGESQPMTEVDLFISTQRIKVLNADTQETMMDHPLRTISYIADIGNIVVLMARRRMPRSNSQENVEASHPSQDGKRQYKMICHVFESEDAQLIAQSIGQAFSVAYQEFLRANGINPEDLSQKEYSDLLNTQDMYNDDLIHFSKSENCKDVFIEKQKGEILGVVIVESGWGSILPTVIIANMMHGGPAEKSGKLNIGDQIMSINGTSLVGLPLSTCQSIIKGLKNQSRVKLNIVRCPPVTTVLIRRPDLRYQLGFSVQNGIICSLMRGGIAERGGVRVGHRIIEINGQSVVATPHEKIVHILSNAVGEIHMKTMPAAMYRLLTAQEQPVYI

Cc1cccc(NC(=S)NCc2ccco2)n1
IC50 [1]: 6.94 µM (active)
IC50 [2]: > 50 µM (inactive)

NC1=C(c2nc(-c3ccc(F)cc3)cs2)C(=O)CN1CCCN1CCOCC1
IC50 [3]: 9.02 µM (active)
AC50 (Cytochrome P450 3A4): 10 µM (inconclusive)
AC50 (Cytochrome P450 1A2): 15.8 µM (inconclusive)
AC50 (Cytochrome P450 2D6): 28.2 µM (inconclusive)
AC50 (Cytochrome P450 2C9): 28.2 µM (inconclusive)

CCCCCn1c(=O)c(C(=O)Nc2cnccn2)c(O)c2ccccc21
IC50 (HEK293): > 20 µM (inactive)
CC50 [4]: 13.5 µM (active)
EC50 (Streptococcus): 5.32 µM (active)
IC50 (cells): 3.04 µM (active)
AC50 [5]: 1.54 µM (active)
CC50 [6]: 4.02 µM (active)
CC50 [7]: 5.17 µM (active)
AC50 [8]: 5.93 µM (active)
IC50 [9]: 11.3 µM (active)
CC50 [10]: 2.4 µM (active)
EC50 [11]: 3.24 µM (active)
IC50 (Tumor necrosis factor): > 20 µM (inactive)
AC50 [12]: > 70 µM (inactive)
AC50 [13]: 3.1 µM (active)

O=C(Nc1nnc(-c2ccccc2SCc2ccccc2F)s1)Nc1ccccc1F
IC50 (SUMO-activating enzyme): 41.1 µM (active)
EC50 [14]: 5.89 µM (active)
EC50 [15]: 5.32 µM (active)
IC50 [16]: > 50 µM (not active)
CC50 [10]: 29.5 µM (active)

CCN(CC)C(=O)COC(=O)c1cc(-c2ccco2)nc2ccccc12
IC50 [17]: 13.9 µM (active)
IC50 (SUMO E1/E2): 2.71 µM (active)
IC50 [1]: 12.7 µM (active)
IC50 [18]: 50 µM (inactive)
IC50 [19]: 19.2 µM (active)
IC50 [2]: 4.92 µM (active)
IC50 [20]: 3.26 µM (active)
EC50 (Kallikrein-7): 23 µM (inactive)

CCOc1cc2[nH]c(=S)n(CCCC(=O)NCc3ccccn3)c(=O)c2cc1OCC
EC50 [21]: > 100 µM (inactive)

O=C(NCCCN1CCN(c2ccc(F)cc2)CC1)C1CCCN(c2ncnc3c2nc2n3CCCCC2)C1 (stereo not drawn)
IC50 [22]: 8.08 µM (active)
IC50 (Bcl-2-related protein A1): > 20 µM (inactive)
IC50 [23]: 3.64 µM (active)
